Patent US9023789B2, “Amylin analogs and pharmaceutical compositions thereof” (Novo Nordisk A/S, priority 2012, dated 2015)
Numbered stars: 1 amine (or outer) side, 2 acyl side, 3 side chain; on linkers, the order of the positions; unused ones are H or OH. Bridge positions count the residues as written; N and C are the ends. Side chains are listed from the residue outwards. Peptide text beside a SMILES is read from it. * marks the point of attachment. C20 diacid = O=C(O)CCCCCCCCCCCCCCCCCCC(=O)*; γGlu = O=C(O)[C@H](CCC(=O)[*:2])N[*:1]; AEEA = NCCOCCOCC(=O)O

Assays:
[1] = target: T1, human amylin receptor (membranes from Amylin 3(a)/CRE-luc cells) (Homo sapiens, UniProt O60896+P30988); assay: ASSAY (V) binding to the human amylin receptor (SPA, 125I-rat amylin); conditions: for IC50: Table 4, read-out: hAmylin-R bind IC50;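 on all read-outs here: competition binding of cell membranes (35 ng/µL) mixed with SPA beads in 384-well plates at 40 µL total volume, read by scintillation counting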
T1 construct: expressed in transfected cells
T1 sequence (P30988 25-474): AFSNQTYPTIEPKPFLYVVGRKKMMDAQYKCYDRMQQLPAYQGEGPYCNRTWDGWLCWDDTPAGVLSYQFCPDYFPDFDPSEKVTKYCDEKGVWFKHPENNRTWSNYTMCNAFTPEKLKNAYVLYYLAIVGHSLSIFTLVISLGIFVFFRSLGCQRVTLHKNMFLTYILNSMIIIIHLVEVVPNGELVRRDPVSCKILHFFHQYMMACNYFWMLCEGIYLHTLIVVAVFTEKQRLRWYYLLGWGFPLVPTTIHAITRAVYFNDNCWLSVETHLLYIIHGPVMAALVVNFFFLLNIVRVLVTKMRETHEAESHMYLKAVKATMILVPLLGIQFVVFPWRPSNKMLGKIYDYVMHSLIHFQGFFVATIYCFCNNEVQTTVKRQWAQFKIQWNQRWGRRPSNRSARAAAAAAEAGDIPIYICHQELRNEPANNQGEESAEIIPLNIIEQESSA
T1 sequence (O60896 24-148 partner): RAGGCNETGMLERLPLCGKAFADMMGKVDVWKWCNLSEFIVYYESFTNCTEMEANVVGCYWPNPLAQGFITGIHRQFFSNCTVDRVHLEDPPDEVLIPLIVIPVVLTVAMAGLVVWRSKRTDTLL

[2] = target: T2, human amylin 3(a) receptor (human calcitonin receptor + RAMP-3) in BHK570 cells (Homo sapiens, UniProt O60896+P30988); assay: ASSAY (II)a functional assay, human amylin receptor (CRE luciferase); format: cell-based; conditions: for EC50: human amylin receptor functional potency, assay (II), read-out: hAmylin-R funct. EC50
T2 construct: expressed in transfected cells
Summary of the method: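 Functional agonism was measured by CRE-luciferase reporter luminescence in BHK cells bearing calcitonin receptor, or calcitonin receptor plus RAMP-3 as the amylin 3(a) receptor. Stimulation lasted 3 hours at 37° C.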

rat calcitonin receptor = target: T3, rat calcitonin receptor (Rattus norvegicus, UniProt P32214); assay: ASSAY (VIII) binding to the rat calcitonin receptor; conditions: Table 7, read-out: rCTR bind IC50
T3 construct: expressed in transfected cells; host or cells: BHK tk'ts 13 (transient, FuGENE 6), membranes
T3 sequence (P32214 25-479 isoform P32214-2 limits assumed): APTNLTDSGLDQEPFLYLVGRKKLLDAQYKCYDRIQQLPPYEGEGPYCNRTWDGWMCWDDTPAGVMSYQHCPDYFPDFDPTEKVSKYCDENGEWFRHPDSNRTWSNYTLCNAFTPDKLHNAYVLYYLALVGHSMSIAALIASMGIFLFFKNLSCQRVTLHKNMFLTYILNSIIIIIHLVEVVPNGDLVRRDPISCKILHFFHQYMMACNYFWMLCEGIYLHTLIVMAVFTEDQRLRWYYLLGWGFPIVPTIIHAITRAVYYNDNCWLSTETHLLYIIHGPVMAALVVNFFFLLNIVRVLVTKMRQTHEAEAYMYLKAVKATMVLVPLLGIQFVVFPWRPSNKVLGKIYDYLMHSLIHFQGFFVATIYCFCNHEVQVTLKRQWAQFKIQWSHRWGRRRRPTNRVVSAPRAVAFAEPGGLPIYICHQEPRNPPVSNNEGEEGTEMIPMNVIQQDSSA
Summary of the method: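 Receptor source: membranes from transiently transfected BHK tk′ts 13 cells expressing rat calcitonin receptor, collected roughly 48 hours after transfection.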

[3] = Table 5, selectivity, hCTR bind IC50 / hAmylin-R bind IC50
[4] = Table 5a, selectivity, hCTR bind IC50 / hAmylin-R bind IC50
[5] = Table 5b, selectivity, hCTR bind IC50 / hAmylin-R bind IC50
[6] = Table 5c, selectivity, hCTR bind IC50 / hAmylin-R bind IC50
[7] = Table 7, human binding selectivity, included for comparison
[8] = Table 7a (preferred compounds), human binding selectivity, included for comparison
[9] = ratio of human calcitonin receptor binding IC50 to human amylin receptor binding IC50
[10] = hCTR funct. EC50 divided by hAmylin-R funct. EC50
[11] = hCTR funct. EC50 over hAmylin-R funct. EC50
[12] = human functional selectivity: hCTR funct. EC50 / hAmylin-R funct. EC50

CC[C@H](C)[C@H](NC(=O)[C@H](C)NC(=O)CNC(=O)[C@H](Cc1ccccc1)NC(=O)[C@H](CC(N)=O)NC(=O)[C@@H]1CCCN1C(=O)[C@H](CO)NC(=O)[C@H](CO)NC(=O)[C@H](Cc1c[nH]cn1)NC(=O)[C@H](CCCNC(=N)N)NC(=O)[C@H](CC(C)C)NC(=O)[C@H](Cc1ccccc1)NC(=O)[C@H](Cc1c[nH]cn1)NC(=O)[C@H](C)NC(=O)[C@H](CC(C)C)NC(=O)[C@H](CCCNC(=N)N)NC(=O)[C@H](CCC(N)=O)NC(=O)[C@@H](NC(=O)[C@H](C)NC(=O)[C@@H]1CSSC[C@H](NC(=O)[C@@H](N)CCCCNC(=O)COCCOCCNC(=O)CC[C@H](NC(=O)CCCCCCCCCCCCCCCCCCC(=O)O)C(=O)O)C(=O)N[C@@H](CC(N)=O)C(=O)N[C@@H]([C@@H](C)O)C(=O)N[C@@H](C)C(=O)N[C@@H]([C@@H](C)O)C(=O)N1)[C@@H](C)O)C(=O)N1CCC[C@H]1C(=O)N[C@@H](CO)C(=O)N[C@@H](CO)C(=O)N[C@H](C(=O)N[C@@H](CC(N)=O)C(=O)N[C@H](C(=O)NCC(=O)N[C@@H](CCCNC(=N)N)C(=O)N[C@@H](CC(N)=O)C(=O)N[C@H](C(=O)N[C@@H](Cc1ccc(O)cc1)C(N)=O)[C@@H](C)O)C(C)C)[C@@H](C)O [Example 84] (H-K([AEEA-γGlu-C20 diacid])CNTATCATQRLAHFLRHSSPNFGAIPSSTNVGRNTY-NH2; disulfide 2-7 (inferred); N-terminus assumed)
IC50 [1]: 0.743 nM | Ratio hCT/hAmylin binding [1, 3]: 119.6 | Ratio hCT/hAmylin binding [1, 4]: 119.6 | Ratio hCT/hAmylin binding [1, 5]: 119.6 | Ratio hCT/hAmylin binding [1, 6]: 119.6 | Ratio hCT/hAmylin binding [1, 7]: 119.6 | Ratio hCT/hAmylin binding [1, 8]: 119.6 | Ratio hCT/hAmylin binding [1, 9]: 119.6 | Ratio hCT/hAmylin funct. [2, 10]: 32.5 | Ratio hCT/hAmylin funct. [2, 11]: 32.5 | EC50 [2]: 0.169 nM | Ratio hCT/hAmylin funct. [2, 12]: 32.5 | IC50 (rat calcitonin receptor): 477 nM

CC[C@H](C)[C@H](NC(=O)[C@H](C)NC(=O)CNC(=O)[C@H](Cc1ccccc1)NC(=O)[C@H](CC(N)=O)NC(=O)[C@@H]1CCCN1C(=O)[C@H](CO)NC(=O)[C@H](CO)NC(=O)[C@H](Cc1c[nH]cn1)NC(=O)[C@H](CCCNC(=N)N)NC(=O)[C@H](CC(C)C)NC(=O)[C@H](Cc1ccccc1)NC(=O)[C@H](CCC(=O)O)NC(=O)[C@H](C)NC(=O)[C@H](CC(C)C)NC(=O)[C@H](CCCNC(=N)N)NC(=O)[C@H](CCC(N)=O)NC(=O)[C@@H](NC(=O)[C@H](C)NC(=O)[C@@H]1CSSC[C@H](NC(=O)[C@@H](N)CCCCNC(=O)CC[C@H](NC(=O)CC[C@H](NC(=O)CCCCCCCCCCCCCCCCCCC(=O)O)C(=O)O)C(=O)O)C(=O)N[C@@H](CC(N)=O)C(=O)N[C@@H]([C@@H](C)O)C(=O)N[C@@H](C)C(=O)N[C@@H]([C@@H](C)O)C(=O)N1)[C@@H](C)O)C(=O)N1CCC[C@H]1C(=O)N[C@@H](CO)C(=O)N[C@@H](CO)C(=O)N[C@H](C(=O)N[C@@H](CC(N)=O)C(=O)N[C@H](C(=O)NCC(=O)N[C@@H](Cc1c[nH]cn1)C(=O)N[C@@H](CC(N)=O)C(=O)N[C@H](C(=O)N[C@@H](Cc1ccc(O)cc1)C(N)=O)[C@@H](C)O)C(C)C)[C@@H](C)O [Example 87] (H-K([γGlu-γGlu-C20 diacid])CNTATCATQRLAEFLRHSSPNFGAIPSSTNVGHNTY-NH2; disulfide 2-7)
IC50 [1]: 0.633 nM | Ratio hCT/hAmylin binding [1, 3]: 35.6 | Ratio hCT/hAmylin binding [1, 4]: 35.6 | Ratio hCT/hAmylin binding [1, 5]: 35.6 | Ratio hCT/hAmylin binding [1, 6]: 35.6 | Ratio hCT/hAmylin binding [1, 7]: 35.6 | Ratio hCT/hAmylin binding [1, 8]: 35.6 | Ratio hCT/hAmylin binding [1, 9]: 35.6 | Ratio hCT/hAmylin funct. [2, 10]: 3.8 | Ratio hCT/hAmylin funct. [2, 11]: 3.8 | EC50 [2]: 0.285 nM | Ratio hCT/hAmylin funct. [2, 12]: 3.8 | IC50 (rat calcitonin receptor): 94.5 nM

CC[C@H](C)[C@H](NC(=O)[C@H](C)NC(=O)CNC(=O)[C@H](Cc1ccccc1)NC(=O)[C@H](CC(N)=O)NC(=O)[C@@H]1CCCN1C(=O)[C@H](CO)NC(=O)[C@H](CO)NC(=O)[C@H](Cc1c[nH]cn1)NC(=O)[C@H](CCCNC(=N)N)NC(=O)[C@H](CC(C)C)NC(=O)[C@H](Cc1ccccc1)NC(=O)[C@H](CC(N)=O)NC(=O)[C@H](C)NC(=O)[C@H](CC(C)C)NC(=O)[C@H](CCCNC(=N)N)NC(=O)[C@H](CCC(N)=O)NC(=O)[C@@H](NC(=O)[C@H](C)NC(=O)[C@@H]1CSSC[C@H](NC(=O)[C@@H](N)CCCCNC(=O)COCCOCCNC(=O)CC[C@H](NC(=O)CCCCCCCCCCCCCCCCCCC(=O)O)C(=O)O)C(=O)N[C@@H](CC(N)=O)C(=O)N[C@@H]([C@@H](C)O)C(=O)N[C@@H](C)C(=O)N[C@@H]([C@@H](C)O)C(=O)N1)[C@@H](C)O)C(=O)N1CCC[C@H]1C(=O)N[C@@H](CO)C(=O)N[C@@H](CO)C(=O)N[C@H](C(=O)N[C@@H](CC(N)=O)C(=O)N[C@H](C(=O)NCC(=O)N[C@@H](CO)C(=O)N[C@@H](CCCNC(=N)N)C(=O)N[C@H](C(=O)N[C@@H](Cc1ccc(O)cc1)C(N)=O)[C@@H](C)O)C(C)C)[C@@H](C)O [Example 38]
IC50 (rat calcitonin receptor): 38 nM

CC[C@H](C)[C@H](NC(=O)[C@H](C)NC(=O)CNC(=O)[C@H](Cc1ccccc1)NC(=O)[C@H](CC(N)=O)NC(=O)[C@@H]1CCCN1C(=O)[C@H](CO)NC(=O)[C@H](CO)NC(=O)[C@H](Cc1c[nH]cn1)NC(=O)[C@H](CCCNC(=N)N)NC(=O)[C@H](CC(C)C)NC(=O)[C@H](Cc1ccccc1)NC(=O)[C@H](CCC(=O)O)NC(=O)[C@H](C)NC(=O)[C@H](CC(C)C)NC(=O)[C@H](CCCNC(=N)N)NC(=O)[C@H](CCC(N)=O)NC(=O)[C@@H](NC(=O)[C@H](C)NC(=O)[C@@H]1CSSC[C@H](NC(=O)[C@H](CCCCN)NC(=O)CC[C@H](NC(=O)CCCCCCCCCCCCCCCCCCC(=O)O)C(=O)O)C(=O)N[C@@H](CC(N)=O)C(=O)N[C@@H]([C@@H](C)O)C(=O)N[C@@H](C)C(=O)N[C@@H]([C@@H](C)O)C(=O)N1)[C@@H](C)O)C(=O)N1CCC[C@H]1C(=O)N[C@@H](CO)C(=O)N[C@@H](CO)C(=O)N[C@H](C(=O)N[C@@H](CC(N)=O)C(=O)N[C@H](C(=O)NCC(=O)N[C@@H](CO)C(=O)N[C@@H](CC(N)=O)C(=O)N[C@H](C(=O)N1CCC[C@H]1C(N)=O)[C@@H](C)O)C(C)C)[C@@H](C)O [Example 8] ({C20 diacid-γGlu}-KCNTATCATQRLAEFLRHSSPNFGAIPSSTNVGSNTP-NH2; disulfide 2-7)
IC50 [1]: 0.072 nM | Ratio hCT/hAmylin binding [1, 3]: 0.5 | Ratio hCT/hAmylin binding [1, 7]: 0.5 | Ratio hCT/hAmylin funct. ([2]; hCTR funct. EC50 / hAmylin-R funct. EC50): 1.1 | Ratio hCT/hAmylin funct. [2, 10]: 1.1 | Ratio hCT/hAmylin funct. [2, 11]: 1.1 | EC50 [2]: 0.082 nM | Ratio hCT/hAmylin funct. [2, 12]: 1.1
